The compounds below were run on mice (assay: Acute toxicity in oral administration to mice).
Format: in vivo
Excerpt: The results of tests for an acute toxicity of the thus-obtained desired product when administered orally to mice are shown in the Table hereinbelow.
The results of tests of the thus-obtained desired product for an acute toxicity in oral administration to mice are shown in the Table hereinbelow.
Acute toxicity of 2,2'-di-(1,6,7-trihydroxy-3-methyl-
5-isopropyl-8-naphthaldehyde) in oral administration

Structure (SMILES)	LD50
Cc1cc2c(C(C)C)c(O)c(O)c(C=O)c2c(O)c1-c1c(C)cc2c(C(C)C)c(O)c(O)c(C=O)c2c1O [Example 1, 2,2'-di-(1,6,7-trihydroxy-3-methyl-5-isopropyl-8-naphthaldehyde)]	640 (450-768) mg/kg
Cc1cc2c(C(C)C)c(O)c(O)c(C=O)c2c(O)c1-c1c(C)cc2c(C(C)C)c(O)c(O)c(C=O)c2c1O [known preparation, 2,2'-di-(1,6,7-trihydroxy-3-methyl-5-isopropyl-8-naphthaldehyde), reference compound]	383 (340-426) mg/kg
Cc1cc2c(C(C)C)c(O)c(O)c(C=O)c2c(O)c1-c1c(C)cc2c(C(C)C)c(O)c(O)c(C=O)c2c1O [Example 3, 2,2'-di-(1,6,7-trihydroxy-3-methyl-5-isopropyl-8-naphthaldehyde)]	750 (646-870) mg/kg
Cc1cc2c(C(C)C)c(O)c(O)c(C=O)c2c(O)c1-c1c(C)cc2c(C(C)C)c(O)c(O)c(C=O)c2c1O [Example 2, 2,2'-di-(1,6,7-trihydroxy-3-methyl-5-isopropyl-8-naphthaldehyde)]	over 1,500 mg/kg

Reference: US5059717A, “Method for purification of 2,2'-di(1,6,7-trihydroxy-3-methyl-5-isopropyl-8-naphthaldehyde)” (priority 1990, dated 1991)
